Our source for the IC50 values is US20250064789A1, “KETOAMIDE DERIVATIVES AND PHARMACEUTICAL USES THEREOF” (priority 2022, published 2025).

Where only a bound is given, the exact number is not on record here.

The first test deals with recombinant SARS-CoV-2 M^pro (Severe acute respiratory syndrome coronavirus 2 (2019-nCoV) (SARS-CoV-2), UniProt P0DTD1). Put plainly: Inhibition of SARS-CoV-2 M^pro enzyme activity (fluorescent substrate assay). It counts as biochemical. Particulars: inhibition of SARS-CoV-2 M^pro enzyme activity; values given in μM; read-out: IC50.
Take `CN1CCC(C(=O)NC2(C(=O)N[C@H](Cc3ccccc3)C(=O)C(=O)NCc3ccccn3)CCC2)CC1=O` (stereo partly drawn) [Compound 189]: the IC50 was above 2.5 µM.

Staying with this test, now noted: inhibition of SARS-CoV-2 M^pro enzyme activity; values in nM; read-out: IC50.
Turning to `O=C(NCc1ccccn1)C(=O)[C@@H](Cc1ccccc1)NC(=O)C1(NC(=O)C2CCC(F)(F)CC2)CCC1` [Compound 187], the half-maximal inhibitory concentration (IC50) turned out to be 0.0107 ± 0.0005 µM. Turning to `O=C(NCc1ccccn1)C(=O)[C@@H](Cc1ccccc1)NC(=O)C1(NC(=O)[C@H]2CC[C@@H](F)CC2)CCC1` [Compound 188], the IC50 came out at 0.079 ± 0.0088 µM. For the compound `O=C(NCc1ccccn1)C(=O)[C@@H](Cc1ccccc1)NC(=O)C1(NC(=O)C2CC(=O)N(c3ccccc3)C2)CCC1` (stereo partly drawn) [Compound 190], the IC50 came to 0.0296 µM.

In the case of `O=C(NCc1ccccn1)C(=O)[C@@H](Cc1ccccc1)NC(=O)C1(NC(=O)C2CCOCC2)CCC1` [Compound 191], the IC50 worked out at 0.073 ± 0.0045 µM. With `CC1(C)C(C(=O)NC2(C(=O)N[C@H](Cc3ccccc3)C(=O)C(=O)NCc3ccccn3)CCC2)C1(C)C` [Compound 192], the half-maximal inhibitory concentration (IC50) was found to be 0.0254 ± 0.0009 µM. With `O=C(NCc1ccccn1)C(=O)[C@@H](Cc1ccccc1)NC(=O)C1(NC(=O)C2CCCC(F)(F)C2)CCC1` (stereo partly drawn) [Compound 193], the IC50 was determined as 0.0167 ± 0.0004 µM. Consider `CN(C(=O)C1CCC(F)(F)CC1)C1(C(=O)N[C@H](Cc2ccccc2)C(=O)C(=O)NCc2ccccn2)CCC1` [Compound 194], for which the half-maximal inhibitory concentration (IC50) was 0.387 ± 0.03 µM. Take `O=C(NCc1ccccn1)C(=O)[C@@H](Cc1ccccc1)NC(=O)C1(NC(=O)C2CCCCCC2)CCC1` [Compound 195]: the IC50 is 0.0308 ± 0.0001 µM. On the same count and under the same terms, as for `O=C(CC12CC3CC(CC(C3)C1)C2)NC1(C(=O)N[C@H](Cc2ccccc2)C(=O)C(=O)NCc2ccccn2)CCC1` [Compound 196], the figure is 0.0145 ± 0.0001 µM; as for `O=C(CC1CCCC1)NC1(C(=O)N[C@H](Cc2ccccc2)C(=O)C(=O)NCc2ccccn2)CCC1` [Compound 197], 0.0138 ± 0.0008 µM.

Regarding `O=C(NCc1ccccn1)C(=O)[C@@H](Cc1ccccc1)NC(=O)C1(NC(=O)c2cc(C(F)(F)F)[nH]n2)CCC1` [Compound 198], the IC50 was 0.0181 ± 0.0027 µM. For the compound `O=C(NCc1ccccn1)C(=O)[C@@H](Cc1ccccc1)NC(=O)C1(NC(=O)C23CC4CC(CC(O)(C4)C2)C3)CCC1` [Compound 199], the IC50 is 0.0527 ± 0.001 µM. On to `O=C(NCc1ccccn1)C(=O)[C@@H](Cc1ccccc1)NC(=O)C1(NC(=O)c2[nH]nc3c2COCC3)CCC1` [Compound 200], for which the IC50 turned out to be 0.2193 ± 0.0006 µM. For `O=C(NCc1ccccn1)C(=O)[C@@H](Cc1ccccc1)NC(=O)C1(NC(=O)[C@H]2CC[C@H](c3ccc(Cl)cc3)CC2)CCC1` [Compound 201], the IC50 is 0.6534 ± 0.0041 µM. For `O=C(NCc1ccccn1)C(=O)[C@@H](Cc1ccccc1)NC(=O)C1(NC(=O)[C@@H]2C[C@@H]3[C@H](C2)C3(F)F)CCC1` [Compound 202], the IC50 is 0.0174 ± 0.0012 µM.

For `O=C(NCc1ccccn1)C(=O)[C@@H](Cc1ccccc1)NC(=O)C1(NC(=O)C23CC4(F)CC(F)(CC(F)(C4)C2)C3)CCC1` [Compound 203], the IC50 worked out at 0.0196 ± 0.0006 µM. On to `O=C(NCc1ccccn1)C(=O)[C@@H](Cc1ccccc1)NC(=O)C1(NC(=O)C2CC(F)(F)C2)CCC1` [Compound 204], for which the IC50 was 0.0367 ± 0.0009 µM. Consider `O=C(NCc1ccccn1)C(=O)[C@@H](Cc1ccccc1)NC(=O)C1(NC(=O)C2CCC(O)(C(F)(F)F)CC2)CCC1` (stereo partly drawn) [Compound 205], for which the IC50 was found to be 0.0239 ± 0.0009 µM.

Take `CC(C)[C@@H]1CC[C@@H](C)C[C@H]1OCC(=O)NC1(C(=O)N[C@H](Cc2ccccc2)C(=O)C(=O)NCc2ccccn2)CCC1` [Compound 206]: the 50% inhibitory concentration (IC50) stood at 0.018 ± 0.0005 µM. Regarding `O=C(COC1CCCC1)NC1(C(=O)N[C@H](Cc2ccccc2)C(=O)C(=O)NCc2ccccn2)CCC1` [Compound 207], the half-inhibitory concentration (IC50) was found to be 0.0461 ± 0.0009 µM. Regarding `N#Cc1ccc(OCC(=O)NC2(C(=O)N[C@H](Cc3ccccc3)C(=O)C(=O)NCc3ccccn3)CCC2)cc1` [Compound 208], the IC50 was determined as 0.0371 ± 0.0017 µM.

As for `O=C(CC1CC(F)(F)C1)NC1(C(=O)N[C@H](Cc2ccccc2)C(=O)C(=O)NCc2ccccn2)CCC1` [Compound 209], the IC50 stood at 0.0122 ± 0.0002 µM. On the same count and under the same terms, under `O=C(CC1CCOCC1)NC1(C(=O)N[C@H](Cc2ccccc2)C(=O)C(=O)NCc2ccccn2)CCC1` [Compound 210] stands 0.0207 ± 0.0011 µM; under `O=C(NCc1ccccn1)C(=O)[C@@H](Cc1ccccc1)NC(=O)C1(NC(=O)C2C3COCC32)CCC1` (stereo partly drawn) [Compound 211], 0.0577 ± 0.003 µM; under `CC1=NN=C(C)C1C(=O)NC1(C(=O)N[C@H](Cc2ccccc2)C(=O)C(=O)NCc2ccccn2)CCC1` [Compound 212], 0.346 ± 0.0099 µM. As for `O=C(CCC(F)(F)F)NC1(C(=O)N[C@H](Cc2ccccc2)C(=O)C(=O)NCc2ccccn2)CCC1` [Compound 213], the half-inhibitory concentration (IC50) amounted to 0.0414 ± 0.0008 µM. For `O=C(NCc1ccccn1)C(=O)[C@@H](Cc1ccccc1)NC(=O)C1(NC(=O)C2CC3CCC2C3)CCC1` (stereo partly drawn) [Compound 214], the IC50 turned out to be 0.0174 ± 0.0005 µM.

Regarding `O=C(NCc1ccccn1)C(=O)[C@@H](Cc1ccccc1)NC(=O)C1(NC(=O)c2ccc(F)cc2)CCC1` [Compound 215], the 50% inhibitory concentration (IC50) was found to be 0.0137 ± 0.0009 µM. Same read-out and setting: as for `O=C(NCc1ccccn1)C(=O)[C@@H](Cc1ccccc1)NC(=O)[C@@H](Cc1ccccc1)NC(=O)[C@H]1CC[C@H](C(F)(F)F)CC1` [Compound 216], the figure is 0.0163 ± 0.0004 µM. As to `O=C(NCc1ccccn1)C(=O)[C@@H](Cc1ccccc1)NC(=O)[C@@H](Cc1ccccn1)NC(=O)C1CCC(F)(F)CC1` [Compound 217], the IC50 turned out to be 0.0273 ± 0.0012 µM. In the case of `O=C(NCc1ccccn1)C(=O)[C@@H](Cc1ccccc1)NC(=O)[C@@H](Cc1cccnc1)NC(=O)C1CCC(F)(F)CC1` [Compound 218], the IC50 amounted to 0.0234 ± 0.0008 µM. Turning to `CC(C)C[C@@H](NC(=O)C1CCC(F)(F)CC1)C(=O)N[C@H](Cc1ccccc1)C(=O)C(=O)NCc1ccccn1` [Compound 219], the IC50 stood at 0.0134 ± 0.0017 µM.

Regarding `O=C(NCc1ccccn1)C(=O)[C@@H](Cc1ccccc1)NC(=O)[C@@H](CC1CCCCC1)NC(=O)C1CCC(F)(F)CC1` [Compound 220], the concentration for half-maximal inhibition (IC50) was found to be 0.0139 ± 0.0001 µM. Take `CC[C@@H](C)[C@@H](NC(=O)C1CCC(F)(F)CC1)C(=O)N[C@H](Cc1ccccc1)C(=O)C(=O)NCc1ccccn1` [Compound 221]: the IC50 is 0.0156 ± 0.0012 µM. `COC[C@@H](NC(=O)C1CCC(F)(F)CC1)C(=O)N[C@H](Cc1ccccc1)C(=O)C(=O)NCc1ccccn1` [Compound 222]: the IC50 amounted to 0.0165 ± 0.0015 µM. For the compound `O=C(NCc1ccccn1)C(=O)[C@@H](Cc1ccccc1)NC(=O)[C@H](NC(=O)C1CCC(F)(F)CC1)C1CCCCC1` [Compound 223], the concentration for half-maximal inhibition (IC50) was 0.0111 ± 0.0003 µM. As for `CC(C)(C)C[C@@H](NC(=O)C1CCC(F)(F)CC1)C(=O)N[C@H](Cc1ccccc1)C(=O)C(=O)NCc1ccccn1` [Compound 224], the IC50 turned out to be 0.0258 ± 0.0013 µM. For `CC(C)(C)OC(=O)N1CC(NC(=O)C2CCC(F)(F)CC2)(C(=O)N[C@H](Cc2ccccc2)C(=O)C(=O)NCc2ccccn2)C1` [Compound 225], the IC50 was determined as 0.0382 ± 0.003 µM. Take `O=C(NCc1ccccn1)C(=O)[C@@H](Cc1ccccc1)NC(=O)[C@H](NC(=O)C1CCC(F)(F)CC1)C1CCCC1` [Compound 226]: the IC50 was determined as 0.016 ± 0.0008 µM.

With `O=C(NCc1ccccn1)C(=O)[C@@H](Cc1ccccc1)NC(=O)C1(NC(=O)C2CCC(F)(F)CC2)CC(F)(F)C1` [Compound 227], the IC50 is 0.019 ± 0.0003 µM. On to `O=C(NCc1ccccn1)C(=O)[C@@H](Cc1ccccc1)NC(=O)C1(NC(=O)C2CCC(F)(F)CC2)CCOC1` (stereo partly drawn) [Compound 228], for which the 50% inhibitory concentration (IC50) worked out at 0.0181 ± 0.0011 µM.

As a reminder, the IC50 is the midpoint of a concentration-inhibition curve.
